Measurements from the NIST ThermoML archive (doi:10.1016/j.jct.2018.08.014).

Legend:
[1] = molar heat capacity at constant pressure; settings: 101.33 kPa, Liquid, DSC
[2] = Crystal; DSC

CCCCCCCCCC(=O)OCC [ethyl decanoate]
[1]
Settings	molar heat capacity at constant pressure [J/K/mol]
263 K	375.79
265 K	375.79
267 K	375.79
269 K	375.79
271 K	375.79
273 K	374.96
275 K	374.13
277 K	374.96
279 K	376.62
281 K	378.29
283 K	379.12
285 K	379.95
287 K	379.95
289 K	380.78
291 K	380.78
293 K	381.61
295 K	382.44
297 K	383.28
298 K	383.28
299 K	384.11
301 K	385.77
303 K	385.77

Settings	Triple point temperature [K]
[2]	252

CCCCCCOC(=O)CCCCC [hexanoic acid, hexyl ester]
[1]
Settings	molar heat capacity at constant pressure [J/K/mol]
227 K	390.76
229 K	387.43
231 K	385.77
233 K	384.94
235 K	384.11
237 K	384.11
239 K	383.28
241 K	383.28
243 K	383.28
245 K	383.28
247 K	383.28
249 K	383.28
251 K	383.28
253 K	383.28
255 K	384.11
257 K	384.94
259 K	384.94
261 K	384.94
263 K	385.77
265 K	385.77
267 K	385.77
269 K	385.77
271 K	385.77
273 K	384.94
275 K	384.94
277 K	385.77
279 K	386.6
281 K	387.43
283 K	389.1
285 K	389.93
287 K	390.76
289 K	392.42
291 K	392.42
293 K	393.25
295 K	394.08
297 K	394.92
298 K	394.92
299 K	394.92
301 K	396.58
303 K	397.41

Settings	Triple point temperature [K]
[2]	217

CCCCCCCCCCC(=O)OC [methyl undecanoate]
[1]
Settings	molar heat capacity at constant pressure [J/K/mol]
273 K	381.61
275 K	381.61
277 K	384.11
279 K	380.78
281 K	381.61
283 K	382.44
285 K	382.44
287 K	385.77
289 K	384.11
291 K	384.11
293 K	384.94
295 K	384.94
297 K	385.77
298 K	389.1
299 K	385.77
301 K	386.6
303 K	389.93

Settings	Triple point temperature [K]
[2]	262

CCCCCCCC(=O)OCCCC [butyl octanoate]
[1]
Settings	molar heat capacity at constant pressure [J/K/mol]
241 K	387.43
243 K	387.43
245 K	386.6
247 K	386.6
249 K	386.6
251 K	386.6
253 K	386.6
255 K	387.43
257 K	388.26
259 K	387.43
261 K	387.43
263 K	386.6
265 K	386.6
267 K	386.6
269 K	386.6
271 K	386.6
273 K	386.6
275 K	386.6
277 K	386.6
279 K	388.26
281 K	389.1
283 K	390.76
285 K	391.59
287 K	391.59
289 K	393.25
291 K	394.08
293 K	394.92
295 K	395.75
297 K	396.58
298 K	397.41
299 K	397.41
301 K	398.24
303 K	399.07

Settings	Triple point temperature [K]
[2]	230

CCCCCCCCOC(=O)CCC [octyl butanoate]
[1]
Settings	molar heat capacity at constant pressure [J/K/mol]
227 K	380.78
229 K	379.12
231 K	379.12
233 K	378.29
235 K	376.62
237 K	376.62
239 K	375.79
241 K	374.96
243 K	374.13
245 K	373.3
247 K	373.3
249 K	372.47
251 K	372.47
253 K	372.47
255 K	372.47
257 K	373.3
259 K	372.47
261 K	373.3
263 K	373.3
265 K	373.3
267 K	374.13
269 K	374.13
271 K	374.13
273 K	373.3
275 K	373.3
277 K	373.3
279 K	374.13
281 K	375.79
283 K	376.62
285 K	377.46
287 K	378.29
289 K	379.12
291 K	379.95
293 K	380.78
295 K	381.61
297 K	383.28
298 K	383.28
299 K	384.11
301 K	385.77
303 K	385.77

Settings	Triple point temperature [K]
[2]	218
